Test results as given in patent US5292737A, “N,N'-bis(sulfonamido)-2-amino-4-iminonaphthalen-1-ones and N,N'-bis(amido)-2-amino-4-iminonaphthalen-1-ones” (Sphinx Pharmaceuticals Corporation, priority 1992, dated 1994).
Like-named read-outs stand apart in the source and are kept apart here.

What was measured:
human neutrophils = assay: Neutrophil Superoxide Anion (O2) Release Assay, PMA-stimulated; format: cell-based; settings: PMA-stimulated human neutrophils, read-out: Neutrophil Superoxide Release IC50
Excerpt: Phorbol-12,13-myristate acetate (PMA) stimulates O2 production in human neutrophils which in turn reduces cytochrome C. Reducing cytochrome C increases absorbance and the change in optical density (OD) is proportional to the amount of O2 produced by PMA stimulation. Inhibition is expressed as an IC50 value and is the amount of test compound that will inhibit fifty percent of the PMA-stimulated respiratory outburst, i.e. O2^31 production (Lherer et al. (1981) J. Clinical lnvest. 68:1314; Roberts et al. (1982) J. Immunological Methods 49:193).
Human donor blood in 0.38% Sodium Citrate was centrifuged for 10 minutes at 160 ×g at room temperature. Platelet-rich plasma was removed leaving the buffy coat and the red cell-enriched fraction. Saline with 0.38% Sodium Citrate was added to this fraction up to the original blood volume. The enriched blood sample was diluted 1:1 (v:v) with 3% dextran T500 (Pharmacia) in normal saline and placed in a 60 cc syringe, inverted over a beaker and allowed to settle 30 minutes at room temperature.
Leukocyte-enriched plasma was removed from the syringe, placed into 50 ml polypropylene conical centrifuge tubes and underlaid with 15-20 ml Lymphocyte Separation Medium (LSM Organon Technica). The tubes were centrifuged for 40 minutes at 500×g at room temperature. The plasma, buffy coat and LSM were aspirated off the pellets which contained red blood cells and neutrophils.
The pellets were vortexed and 10 ml ice-cold 0.2% NaCl was added to lyse the red blood cells while vortexing again for 10 seconds. Ice-cold 1.6% NaCl was added while vortexing for 10 seconds. The cells were combined from multiple tubes, centrifuged 10 min at 400×g at 4° C. This red cell lysis was repeated and the resulting neutrophil pellet was washed once in Reaction HBSS (GIBCO, HBSS with Ca^++ and Mg^++,.238% HEPES, 0.1% dextrose, 0.1% RIA grade bovine serum albumin, PH 7.2). The cells were resuspended in 1/5 the original blood volume with Reaction HBSS, counted and adjusted to 4.0×10^6 cells/ml at 4° C.
Duplicate samples of neutrophils were tested in 12×75 mm polypropylene tubes containing 0.25 ml of the neutrophil suspension. Cytochrome C mix (0.25 ml, 6.0 mg/ml cytochrome C type IV (Sigma) plus 1200 U/ml bovine liver catalase (Sigma) in Reaction HBSS described above) was added. PMA was added at 2×the final concentration in 0.5 ml of Reaction HBSS. PMA final test concentration were 0.0, 0.3, 9.0, 27.0, and 81.0 ng/ml. The tubes were vortexed and incubated for 10 minutes at 37° C. with shaking. After chilling for 5 minutes at 4° C. and centrifuging for 10 minutes at 4° C., 550×g, 0.5 ml of supernatant was removed from each tube. Normal saline (0.5 ml) was added to each 0.5 ml sample of supernatant and the absorbance of each sample was read at 550 nm on a spectrophotometer (Shimadzu). The PMA concentration which gives nearly maximal stimulation of superoxide release was determined.
The test samples of neutrophils were prepared as in the PMA dose response through addition of cytochrome C mix. Then 0.4 ml of Reaction HBSS as a control or test agent at 2.5×final test concentration was added and the tubes were vortexed and incubated for 30 minutes at 37° C. with shaking. PMA (0.1 ml) was added at a 10× concentration of the final concentration determined above. The samples were incubated for 10 minutes at 37° C. with shaking, chilled for 5 minutes at 4° C., and then centrifuged for 5 minutes at 550×g at 4° C. The supernatant (0.5 ml) was diluted with 0.5 ml normal saline as above and the absorbance was then determined at 550 nm. The percent change was calculated as follows: [formula] D-sphingosine (Sigma) used as reference standard.
Human neutrophils were first isolated according to Lherer et al. ((1981) J. Clinical Invest. 68:1314) and then tested for stimulation of superoxide anion release with phorbol--12,13-myristate acetate (PMA) in a dose-dependent manner. […]

[1] = system: normal human epidermal keratinocyte (NHEK) cells; assay: Human Keratinocyte Inhibition (3H TdR Assay); format: cell-based; settings: 24 h incubation, 3H-thymidine
[2] = molecular target: cAMP dependent protein kinase (PKA); assay: cAMP Dependent Protein Kinase (PKA) Assay; format: biochemical; settings: for IC50: catalytic subunit of PKA; for effect on PKA activity: result in words
Outline: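 PKA catalytic subunit preincubated with test compound added from DMSO at final 30 and 150 μM; reaction started with ^32P-ATP, run 10 min, stopped with 25% TCA plus BSA. Phosphorylated protein collected by filtration and counted by beta scintillation.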

O=C1C(Nc2ccc(S(=O)(=O)Nc3ccc(Cl)nn3)cc2)=CC(=Nc2ccc(S(=O)(=O)Nc3ccc(Cl)nn3)cc2)c2ccccc21 [Compound 6l]
IC50 (human neutrophils): 5.23 µM | IC50 [1]: 3.3 µM | IC50 [2]: 89 µM

Cc1cc(C)nc(NS(=O)(=O)c2ccc(N=C3C=C(Nc4ccc(S(=O)(=O)Nc5nc(C)cc(C)n5)cc4)C(=O)c4ccccc43)cc2)n1 [Compound 6c]
IC50 (human neutrophils): 1.88 µM | IC50 [1]: 0.04 µM | IC50 [2]: 48 µM

O=C1C(Nc2ccc(S(=O)(=O)NCCNc3ccc([N+](=O)[O-])cn3)cc2)=CC(=Nc2ccc(S(=O)(=O)NCCNc3ccc([N+](=O)[O-])cn3)cc2)c2ccccc21 [Compound 3ac]
IC50 (human neutrophils; Homo sapiens, Neutrophil): 0.05 µM | IC50 ([1]; Homo sapiens): 0.08 µM | IC50 [2]: > 150 µM | effect on PKA activity [2]: did not effect on PKA activity

Cc1ccnc(NS(=O)(=O)c2ccc(N=C3C=C(Nc4ccc(S(=O)(=O)Nc5nccc(C)n5)cc4)C(=O)c4ccccc43)cc2)n1 [Compound 3f]
IC50 (human neutrophils; Homo sapiens, Neutrophil): 2.51 µM | IC50 ([1]; Homo sapiens): 1.2 µM | IC50 [2]: 48 µM

COc1ccc(NS(=O)(=O)c2ccc(N=C3C=C(Nc4ccc(S(=O)(=O)Nc5ccc(OC)nn5)cc4)C(=O)c4ccccc43)cc2)nn1 [Compound 6j]
IC50 (human neutrophils): 3.33 µM | IC50 [1]: 0.82 µM | IC50 [2]: > 150 µM | effect on PKA activity [2]: did not effect on PKA activity

Cc1nnc(NS(=O)(=O)c2ccc(N=C3C=C(Nc4ccc(S(=O)(=O)Nc5nnc(C)s5)cc4)C(=O)c4ccccc43)cc2)s1 [Compound 6e]
IC50 (human neutrophils): 4.78 µM | IC50 [1]: 8.6 µM | IC50 [2]: 45 µM

Cc1cc(C)nc(NS(=O)(=O)c2cc(N=C3C=C(Nc4ccc(C)c(S(=O)(=O)Nc5cc(C)cc(C)n5)c4)C(=O)c4ccccc43)ccc2C)c1 [Compound 6ag]
IC50 (human neutrophils): 0.06 µM | IC50 ([1]; Homo sapiens): 0.5 µM | effect on PKA activity [2]: did not effect on PKA activity

COc1ccc(NS(=O)(=O)c2ccc(N=C3C=C(Nc4ccc(S(=O)(=O)Nc5ccc(OC)nn5)cc4)C(=O)c4ccccc43)cc2)nn1 [Compound 3j]
IC50 (human neutrophils; Homo sapiens, Neutrophil): 1.74 µM | IC50 [1]: 0.34 µM | IC50 [2]: > 150 µM | effect on PKA activity [2]: did not effect on PKA activity

Cc1cc(NS(=O)(=O)c2ccc(N=C3C=C(Nc4ccc(S(=O)(=O)Nc5cc(C)nc(C)n5)cc4)C(=O)c4ccccc43)cc2)nc(C)n1 [Compound 6d]
IC50 (human neutrophils): 6.47 µM | IC50 [1]: 2.5 µM | IC50 [2]: > 150 µM | effect on PKA activity [2]: did not effect on PKA activity

COc1cnc(NS(=O)(=O)c2ccc(N=C3C=C(Nc4ccc(S(=O)(=O)Nc5ncc(OC)cn5)cc4)C(=O)c4ccccc43)cc2)nc1 [Compound 3h]
IC50 (human neutrophils): 8.7 µM | IC50 ([1]; Homo sapiens): 0.9 µM | IC50 [2]: > 150 µM | effect on PKA activity [2]: did not effect on PKA activity
